Assay results reported in patent publication US10364247B2, “Preparation and use of novel protein kinase inhibitors” (Ruijin Hospital Affiliated to Shanghai Jiao Tong University …, priority 2015, dated 2019).

Tests used:
Assay in all cases: KINOMEscan competition binding
[1] = target: T1, MAP3K15 (Homo sapiens, UniProt Q6ZN16); conditions: read-out: Percent Control
T1 construct: purchased KINOMEscan (screening service)
Protocol: (§1) KINOMEscan™ is based on a competition binding assay that quantitatively measures the ability of a compound to compete with an immobilized, active-site directed ligand (Fabian et al. (2005) Nat. Biotechnol. 23, 329; Karaman et al. (2008) Nat. Biotechnol. 26, 127). The compound was screened at 10 μM, and results for primary screen binding interactions are reported as ‘% Ctrl’, where lower numbers indicate stronger hits. The results for kinases targets with a % Ctrl less than 30 can be seen in Table 2.

[2] = target: EPHA7 (Homo sapiens, UniProt Q15375); conditions: read-out: Percent Control
Protocol: as §1

[3] = target: T2, DRAK2 (Homo sapiens, UniProt O94768); conditions: DRAK2 (Entrez STK17B), read-out: Percent Control
T2 construct: purchased KINOMEscan (screening service)
T2 sequence (O94768 whole entry): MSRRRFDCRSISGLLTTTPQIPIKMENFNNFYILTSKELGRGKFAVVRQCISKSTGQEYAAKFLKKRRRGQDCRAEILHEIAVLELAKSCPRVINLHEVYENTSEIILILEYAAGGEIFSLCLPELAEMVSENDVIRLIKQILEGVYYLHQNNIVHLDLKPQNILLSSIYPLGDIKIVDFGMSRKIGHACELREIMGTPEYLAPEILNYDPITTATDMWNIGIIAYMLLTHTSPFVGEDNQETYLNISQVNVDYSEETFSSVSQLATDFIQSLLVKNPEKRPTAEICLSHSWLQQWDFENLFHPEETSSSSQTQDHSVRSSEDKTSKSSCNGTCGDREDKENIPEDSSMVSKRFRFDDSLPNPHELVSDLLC
Protocol: as §1

[4] = target: FER (Homo sapiens, UniProt P16591); conditions: read-out: Percent Control
Protocol: as §1

[5] = target: T3, LYN (Homo sapiens, UniProt P07948); conditions: read-out: Percent Control
T3 construct: purchased KINOMEscan (panel service)
Protocol: as §1

[6] = target: ABL1(F317I)-nonphosphorylated (Homo sapiens, UniProt P00519, F317I); conditions: read-out: Percent Control
Protocol: as §1

[7] = target: MINK (Homo sapiens, UniProt Q8N4C8); conditions: MINK (Entrez MINK1), read-out: Percent Control
Protocol: as §1

[8] = target: T4, p38-alpha (Homo sapiens, UniProt Q16539); conditions: p38-alpha (Entrez MAPK14), read-out: Percent Control
T4 construct: purchased KINOMEscan (panel service)
Protocol: as §1

[9] = target: BLK (Homo sapiens, UniProt P51451); conditions: read-out: Percent Control
Protocol: as §1

[10] = target: EPHB2 (Homo sapiens, UniProt P29323); conditions: read-out: Percent Control
Protocol: as §1

[11] = target: PFCDPK1(P. falciparum) (Plasmodium falciparum, UniProt P62344); conditions: PFCDPK1(P. falciparum) (Entrez CDPK1), read-out: Percent Control
Protocol: as §1

[12] = target: EPHA5 (Homo sapiens, UniProt P54756); conditions: read-out: Percent Control
Protocol: as §1

[13] = target: KIT(V559D, V654A) (Homo sapiens, UniProt P10721, V559D/V654A); conditions: read-out: Percent Control
Protocol: as §1

[14] = target: FLT4 (Homo sapiens, UniProt P35916); conditions: read-out: Percent Control
Sequence of FLT4 (P35916 25-1363): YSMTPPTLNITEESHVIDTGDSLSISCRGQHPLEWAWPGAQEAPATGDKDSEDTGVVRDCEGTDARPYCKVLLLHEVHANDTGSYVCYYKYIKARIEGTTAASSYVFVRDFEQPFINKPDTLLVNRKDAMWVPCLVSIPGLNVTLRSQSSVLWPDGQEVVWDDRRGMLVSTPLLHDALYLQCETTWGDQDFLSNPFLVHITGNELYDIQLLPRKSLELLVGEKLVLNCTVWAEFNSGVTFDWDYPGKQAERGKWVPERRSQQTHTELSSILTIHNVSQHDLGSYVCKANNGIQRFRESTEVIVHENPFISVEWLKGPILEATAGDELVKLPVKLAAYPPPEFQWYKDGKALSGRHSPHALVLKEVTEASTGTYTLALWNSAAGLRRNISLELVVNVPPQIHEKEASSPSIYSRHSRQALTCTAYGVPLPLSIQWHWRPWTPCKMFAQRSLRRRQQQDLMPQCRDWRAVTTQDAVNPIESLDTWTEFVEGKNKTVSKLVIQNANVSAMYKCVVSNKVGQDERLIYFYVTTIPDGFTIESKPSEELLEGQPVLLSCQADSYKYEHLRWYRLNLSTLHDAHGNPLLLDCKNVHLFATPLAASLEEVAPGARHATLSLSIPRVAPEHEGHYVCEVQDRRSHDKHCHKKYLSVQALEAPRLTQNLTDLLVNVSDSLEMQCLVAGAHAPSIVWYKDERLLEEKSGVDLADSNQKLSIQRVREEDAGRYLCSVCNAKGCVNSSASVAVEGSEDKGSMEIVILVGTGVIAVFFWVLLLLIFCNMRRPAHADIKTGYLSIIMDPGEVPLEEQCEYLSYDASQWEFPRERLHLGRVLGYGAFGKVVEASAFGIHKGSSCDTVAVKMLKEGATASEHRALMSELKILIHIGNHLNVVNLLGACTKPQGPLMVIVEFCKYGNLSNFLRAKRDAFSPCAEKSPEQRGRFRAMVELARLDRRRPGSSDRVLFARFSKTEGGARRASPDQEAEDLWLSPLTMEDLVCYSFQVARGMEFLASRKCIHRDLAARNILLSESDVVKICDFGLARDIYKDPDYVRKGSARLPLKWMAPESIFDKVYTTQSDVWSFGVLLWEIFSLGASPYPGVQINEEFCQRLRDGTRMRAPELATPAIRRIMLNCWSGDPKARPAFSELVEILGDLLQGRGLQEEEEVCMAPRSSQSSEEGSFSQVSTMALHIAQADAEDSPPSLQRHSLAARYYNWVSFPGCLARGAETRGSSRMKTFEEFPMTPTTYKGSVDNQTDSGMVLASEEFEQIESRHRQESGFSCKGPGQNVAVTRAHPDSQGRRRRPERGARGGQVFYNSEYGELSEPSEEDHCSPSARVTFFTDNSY
Protocol: as §1

[15] = target: T5, TRKC (Homo sapiens, UniProt Q16288); conditions: TRKC (Entrez NTRK3), read-out: Percent Control
T5 construct: purchased KINOMEscan (screening service)
Protocol: as §1

[16] = target: FGR (Homo sapiens, UniProt P09769); conditions: read-out: Percent Control
Protocol: as §1

[17] = target: EGFR(L747-E749del, A750P) (Homo sapiens, UniProt P00533, A750P/DEL747-749); conditions: read-out: Percent Control
Protocol: as §1

[18] = target: T6, ABL2 (Homo sapiens, UniProt P42684); conditions: read-out: Percent Control
T6 construct: purchased KINOMEscan (panel service)
Protocol: as §1

[19] = target: ABL1(T315I)-nonphosphorylated (Homo sapiens, UniProt P00519, T315I); conditions: read-out: Percent Control
Protocol: as §1

[20] = target: T7, LCK (Homo sapiens, UniProt P06239); conditions: read-out: Percent Control
T7 construct: purchased KINOMEscan (panel service)
Protocol: as §1

[21] = target: ABL1(T315I)-phosphorylated (Homo sapiens, UniProt P00519, T315I); conditions: read-out: Percent Control
Protocol: as §1

[22] = target: KIT(A829P) (Homo sapiens, UniProt P10721, A829P); conditions: read-out: Percent Control
Protocol: as §1

[23] = target: T8, WNK3 (Homo sapiens, UniProt Q9BYP7); conditions: read-out: Percent Control
T8 construct: purchased KINOMEscan (screening service)
Protocol: as §1

[24] = target: T9, KIT(D816V) (Homo sapiens, UniProt P10721, D816V); conditions: read-out: Percent Control
T9 construct: purchased KINOMEscan (panel service)
Protocol: as §1

[25] = target: T10, EPHB1 (Homo sapiens, UniProt P54762); conditions: read-out: Percent Control
T10 construct: purchased KINOMEscan (panel service)
Protocol: as §1

[26] = target: T11, PRKCQ (Homo sapiens, UniProt Q04759); conditions: read-out: Percent Control
T11 construct: purchased KINOMEscan (screening platform)
Protocol: as §1

[27] = target: LOK (Homo sapiens, UniProt O94804); conditions: LOK (Entrez STK10), read-out: Percent Control
Protocol: as §1

[28] = target: FAK (Homo sapiens, UniProt Q05397); conditions: FAK (Entrez PTK2), read-out: Percent Control
Protocol: as §1

[29] = target: T12, ROS1 (Homo sapiens, UniProt P08922); conditions: read-out: Percent Control
T12 construct: purchased KINOMEscan (screening service)
Protocol: as §1

[30] = target: FGFR1 (Homo sapiens, UniProt P11362); conditions: read-out: Percent Control
Protocol: as §1

[31] = target: CTK (Homo sapiens, UniProt P42679); conditions: CTK (Entrez MATK), read-out: Percent Control
Protocol: as §1

[32] = target: T13, CSF1R (Homo sapiens, UniProt P07333); conditions: read-out: Percent Control
T13 construct: purchased KINOMEscan (panel service)
T13 sequence (P07333 20-972): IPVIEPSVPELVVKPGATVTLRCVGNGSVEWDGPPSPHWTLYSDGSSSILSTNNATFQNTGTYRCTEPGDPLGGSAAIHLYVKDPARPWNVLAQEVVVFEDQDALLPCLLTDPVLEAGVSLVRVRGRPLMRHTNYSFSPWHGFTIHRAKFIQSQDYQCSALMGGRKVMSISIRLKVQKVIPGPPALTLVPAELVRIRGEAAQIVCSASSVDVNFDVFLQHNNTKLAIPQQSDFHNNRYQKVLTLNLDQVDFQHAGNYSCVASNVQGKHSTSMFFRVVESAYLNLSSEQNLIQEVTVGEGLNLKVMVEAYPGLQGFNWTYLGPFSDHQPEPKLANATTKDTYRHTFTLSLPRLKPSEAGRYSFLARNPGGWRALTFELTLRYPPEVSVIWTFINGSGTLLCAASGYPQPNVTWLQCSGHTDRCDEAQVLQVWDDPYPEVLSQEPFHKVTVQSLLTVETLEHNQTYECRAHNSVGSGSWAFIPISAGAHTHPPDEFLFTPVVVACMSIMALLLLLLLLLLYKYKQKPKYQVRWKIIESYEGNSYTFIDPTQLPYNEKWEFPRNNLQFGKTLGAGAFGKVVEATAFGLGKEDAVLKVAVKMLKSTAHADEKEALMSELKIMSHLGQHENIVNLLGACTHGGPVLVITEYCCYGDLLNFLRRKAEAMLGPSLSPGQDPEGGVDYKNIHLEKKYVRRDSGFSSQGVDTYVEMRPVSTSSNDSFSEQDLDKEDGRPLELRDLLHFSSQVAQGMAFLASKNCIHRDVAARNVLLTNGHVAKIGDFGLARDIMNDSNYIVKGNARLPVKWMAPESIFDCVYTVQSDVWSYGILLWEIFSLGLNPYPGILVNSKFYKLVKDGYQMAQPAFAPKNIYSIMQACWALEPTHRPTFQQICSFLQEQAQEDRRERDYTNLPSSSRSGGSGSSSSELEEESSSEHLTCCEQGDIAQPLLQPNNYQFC
Protocol: as §1

[33] = target: MUSK (Homo sapiens, UniProt O15146); conditions: read-out: Percent Control
Protocol: as §1

[34] = target: PDGFRB (Homo sapiens, UniProt P09619); conditions: read-out: Percent Control
Sequence of PDGFRB (P09619 33-1106): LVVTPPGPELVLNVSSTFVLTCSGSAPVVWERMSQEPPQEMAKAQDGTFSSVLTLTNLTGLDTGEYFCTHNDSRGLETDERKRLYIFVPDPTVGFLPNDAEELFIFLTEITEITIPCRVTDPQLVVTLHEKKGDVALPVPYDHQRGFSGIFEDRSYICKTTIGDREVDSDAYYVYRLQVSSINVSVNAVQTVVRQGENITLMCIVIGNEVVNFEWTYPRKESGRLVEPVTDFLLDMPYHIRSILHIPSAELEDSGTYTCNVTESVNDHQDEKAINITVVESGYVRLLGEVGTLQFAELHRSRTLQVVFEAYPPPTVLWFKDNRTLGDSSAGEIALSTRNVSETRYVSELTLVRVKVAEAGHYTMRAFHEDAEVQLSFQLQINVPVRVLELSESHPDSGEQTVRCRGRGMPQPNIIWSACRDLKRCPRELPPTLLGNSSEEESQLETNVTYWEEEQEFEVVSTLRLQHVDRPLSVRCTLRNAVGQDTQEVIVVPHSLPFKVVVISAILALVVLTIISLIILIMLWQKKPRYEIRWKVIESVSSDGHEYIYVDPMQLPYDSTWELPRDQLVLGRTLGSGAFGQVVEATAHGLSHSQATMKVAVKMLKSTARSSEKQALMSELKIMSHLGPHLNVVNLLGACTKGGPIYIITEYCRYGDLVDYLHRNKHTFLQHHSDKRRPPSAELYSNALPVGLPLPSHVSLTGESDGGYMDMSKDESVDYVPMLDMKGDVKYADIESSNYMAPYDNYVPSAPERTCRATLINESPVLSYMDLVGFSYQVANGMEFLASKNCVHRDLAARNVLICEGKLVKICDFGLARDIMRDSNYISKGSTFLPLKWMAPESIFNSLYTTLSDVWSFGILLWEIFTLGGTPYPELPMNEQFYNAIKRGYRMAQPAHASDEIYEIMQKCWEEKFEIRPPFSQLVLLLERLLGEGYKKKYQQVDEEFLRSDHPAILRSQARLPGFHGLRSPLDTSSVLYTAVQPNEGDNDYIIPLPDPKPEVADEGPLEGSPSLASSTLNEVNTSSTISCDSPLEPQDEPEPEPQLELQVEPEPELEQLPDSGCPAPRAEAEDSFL
Protocol: as §1

[35] = target: HCK (Homo sapiens, UniProt P08631); conditions: read-out: Percent Control
Protocol: as §1

[36] = target: FES (Homo sapiens, UniProt P07332); conditions: read-out: Percent Control
Protocol: as §1

T1 sequence (Q6ZN16 whole entry): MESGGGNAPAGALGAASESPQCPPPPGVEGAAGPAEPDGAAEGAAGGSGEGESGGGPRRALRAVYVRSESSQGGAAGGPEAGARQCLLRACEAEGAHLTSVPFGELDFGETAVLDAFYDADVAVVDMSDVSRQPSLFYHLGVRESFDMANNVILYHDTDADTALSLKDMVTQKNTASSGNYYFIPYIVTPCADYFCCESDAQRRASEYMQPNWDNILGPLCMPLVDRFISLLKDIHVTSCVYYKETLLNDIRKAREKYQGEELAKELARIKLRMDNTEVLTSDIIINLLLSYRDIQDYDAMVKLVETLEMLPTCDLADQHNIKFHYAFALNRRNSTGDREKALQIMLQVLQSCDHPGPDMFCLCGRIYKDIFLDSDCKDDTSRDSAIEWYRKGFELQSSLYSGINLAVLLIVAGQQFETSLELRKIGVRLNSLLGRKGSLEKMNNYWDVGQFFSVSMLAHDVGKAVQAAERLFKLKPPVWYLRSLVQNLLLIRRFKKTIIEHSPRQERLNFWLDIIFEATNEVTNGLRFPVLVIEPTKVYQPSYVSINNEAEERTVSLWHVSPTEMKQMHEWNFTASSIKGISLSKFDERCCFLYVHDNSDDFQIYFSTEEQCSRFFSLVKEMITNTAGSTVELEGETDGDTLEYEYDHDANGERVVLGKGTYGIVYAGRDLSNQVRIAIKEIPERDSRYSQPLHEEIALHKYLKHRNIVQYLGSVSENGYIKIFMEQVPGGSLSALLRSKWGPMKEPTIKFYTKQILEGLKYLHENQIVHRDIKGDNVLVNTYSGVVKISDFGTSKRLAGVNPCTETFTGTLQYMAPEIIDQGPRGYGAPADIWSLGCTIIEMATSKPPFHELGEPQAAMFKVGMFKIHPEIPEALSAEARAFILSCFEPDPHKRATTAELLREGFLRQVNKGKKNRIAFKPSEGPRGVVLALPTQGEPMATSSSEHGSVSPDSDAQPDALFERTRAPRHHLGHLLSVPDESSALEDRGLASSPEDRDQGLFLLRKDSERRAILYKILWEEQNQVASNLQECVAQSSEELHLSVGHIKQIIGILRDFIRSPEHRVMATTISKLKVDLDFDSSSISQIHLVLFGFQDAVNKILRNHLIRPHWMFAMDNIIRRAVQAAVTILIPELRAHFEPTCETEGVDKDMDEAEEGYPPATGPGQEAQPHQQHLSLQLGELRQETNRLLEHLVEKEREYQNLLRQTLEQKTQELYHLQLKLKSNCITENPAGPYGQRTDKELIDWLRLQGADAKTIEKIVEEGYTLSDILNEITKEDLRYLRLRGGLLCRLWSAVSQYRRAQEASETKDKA

Cc1ccc(Nc2ncc3c(n2)N(C)CN(c2cc(NC(=O)c4cccc(C(F)(F)F)c4)ccc2C)C3)cn1 [IA-9, N-(4-methyl-3-(1-methyl-7-((6-methylpyridin-3-yl)amino)-1,4-dihydropyrimido[4,5-d]pyrimidin-3(2H)-yl)phenyl)-3-(trifluoromethyl)benzamide]
remaining binding at 10 µM [1]: 8.4%
remaining binding at 10 µM [2]: 0.55%
remaining binding at 10 µM [3]: 17%
remaining binding at 10 µM [4]: 3.6%
remaining binding at 10 µM [5]: 0.1%
remaining binding at 10 µM [6]: 0%
remaining binding at 10 µM [7]: 3.6%
remaining binding at 10 µM [8]: 0.1%
remaining binding at 10 µM [9]: 0.3%
remaining binding at 10 µM [10]: 0%
remaining binding at 10 µM [11]: 0.35%
remaining binding at 10 µM [12]: 0.9%
remaining binding at 10 µM [13]: 0.35%
remaining binding at 10 µM [14]: 0%
remaining binding at 10 µM [15]: 7.2%
remaining binding at 10 µM [16]: 0%
remaining binding at 10 µM [17]: 0%
remaining binding at 10 µM [18]: 0.1%
remaining binding at 10 µM [19]: 0%
remaining binding at 10 µM [20]: 0.15%
remaining binding at 10 µM [21]: 4.1%
remaining binding at 10 µM [22]: 3.6%
remaining binding at 10 µM [23]: 18%
remaining binding at 10 µM [24]: 0.05%
remaining binding at 10 µM [25]: 0.15%
remaining binding at 10 µM [26]: 25%
remaining binding at 10 µM [27]: 0%
remaining binding at 10 µM [28]: 6.6%
remaining binding at 10 µM [29]: 17%
remaining binding at 10 µM [30]: 1.3%
remaining binding at 10 µM [31]: 3.4%
remaining binding at 10 µM [32]: 0.15%
remaining binding at 10 µM [33]: 6.8%
remaining binding at 10 µM [34]: 0%
remaining binding at 10 µM [35]: 0.55%
remaining binding at 10 µM [36]: 0.7%
